Test results from patent publication US20260210939A1, “MODIFIED OLFACTORY RECEPTORS” (GIVAUDAN SA, priority 2022, published 2026).
Entries after “also recorded” stand apart in the source; their conditions may differ. Read-outs that look alike come from different tables or passages of the source.

Legend:
OR7C1 [1] = biological target: T1, OR7C1 (Homo sapiens, UniProt O76099, D296E/G302K/M297V/R299D/T295K/V126I); test: CRE-luciferase assay, HEK293T cells expressing OR7C1 (wild-type / modified C-terminus); assay type: cell-based
T1 construct: Improved functional expression of modified OR-genes containing the truncated, optimized C-terminus; expressed in transfected cells; host or cells: HEK293T stably expressing human RTP1S(V227I) and RTP2(L220R)
T1 sequence (O76099 with tags, fused parts or gaps V126I/T295K/D296E/M297V/R299D/G302K): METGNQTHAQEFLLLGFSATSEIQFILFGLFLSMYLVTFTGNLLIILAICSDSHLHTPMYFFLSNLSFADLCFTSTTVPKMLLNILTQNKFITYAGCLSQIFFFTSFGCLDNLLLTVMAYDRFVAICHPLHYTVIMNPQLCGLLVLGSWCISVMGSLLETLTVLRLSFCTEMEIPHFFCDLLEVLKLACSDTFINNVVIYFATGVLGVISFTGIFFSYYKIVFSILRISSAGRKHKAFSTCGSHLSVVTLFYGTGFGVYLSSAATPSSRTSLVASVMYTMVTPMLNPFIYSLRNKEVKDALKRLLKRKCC

OR7A17 and OR7C1 = test: Cells expressing one or both of OR7A17 and OR7C1 (C-terminal domain SEQ ID NO: 221), luciferase; assay type: cell-based, human
Source text: In order to screen for a specific odor description, some or all members of a given set of OR which was identified to be specific for a given odor description as shown in example 25 can be combined in a screening for new odorants or new odorant mixtures. The screening on the different OR can be performed sequentially or in parallel assays with the individual OR of the OR set. Additionally, some or all of the OR of the OR set specific for the odor-description can also be co-expressed in a single cell line. Thus, to screen for woody-ambery molecules, cells were either separately or simultaneously transfected with two plasmids coding for the optimized OR7A17 and OR7C1 both with the C-terminal domain of SEQ ID NO: 221. […] Cells expressing both receptors become functional sensors for the Ambery-woody odor description and detect both ligands down to low concentrations.

OR7C1 [2] = biological target: T1, OR7C1; test: CRE-luciferase assay, HEK293T cells expressing OR7C1 (wild-type / modified C-terminus); assay type: cell-based; remark: listed apart in the source
Source text: To test for possible variants of the sequence […]CC (SEQ ID NO: 86) leading to similar improved functional expression, different point mutations were introduced into the first 16 amino acids of this sequence (corresponding to […], SEQ ID NO: 10) and the variants were fused after the TM7 with OR7C1. […] The test concentrations were selected to fall into the range of partial activity of the wild-type sequence.

[3] = test system: human class II OR identified in the library screening; test: Confirmatory dose-response analysis of library-hit OR with cognate ligand, wild-type vs C-terminal domain SEQ ID NO: 221 (Table 17); settings: for Fold improvement efficacy: maximal induction; for EC50: read-out: Potency, EC50 changed C-term;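 for all read-outs here: Wild-type receptor sequences expressed from the pcDNA3.1(+) vector and compared with the C-terminally modified receptors in dose-response tests using each receptor's cognate ligand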
Method: (§1) Selected ligand—OR pairs were then tested in a confirmatory test with a dose response analysis.
(§2) For selected receptors, the wild-type sequence was synthesized and cloned into pcDNA3.1 (+). Dose-response analysis with the cognate ligand was then performed for both the wild-type and the modified sequence.

[4] = biological target: human class II OR identified in the library screening (Homo sapiens, UniProt A6NM03); test: as above; settings: read-out: Potency, EC50 changed C-term; OR2AG2 (Y28C), modified C-terminus SEQ ID NO: 221 (SEQ ID NO: 379)
Method: as §1, §2

[5] = test system: human class II OR identified in the library screening
Method: as §1, §2

[6] = biological target: human class II OR identified in the library screening (Homo sapiens, UniProt A6NM03, Y28C)
Method: as §1, §2

OR2T4 [7] = biological target: T2, OR2T4 (Homo sapiens, UniProt Q8NH00, D328E/G331D/M330K)
T2 sequence (Q8NH00 with tags, fused parts or gaps D328E/M330K/G331D): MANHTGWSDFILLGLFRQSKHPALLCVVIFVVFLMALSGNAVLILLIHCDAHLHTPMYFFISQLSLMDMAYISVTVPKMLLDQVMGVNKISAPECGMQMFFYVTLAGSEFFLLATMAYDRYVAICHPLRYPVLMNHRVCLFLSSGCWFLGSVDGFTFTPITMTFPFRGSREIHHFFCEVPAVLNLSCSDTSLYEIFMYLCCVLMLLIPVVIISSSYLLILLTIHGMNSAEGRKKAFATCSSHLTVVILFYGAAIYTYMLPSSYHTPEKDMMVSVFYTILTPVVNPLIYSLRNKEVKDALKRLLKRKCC

OR2T4 [8] = biological target: T2, OR2T4; test: cell-based
OR1C1 = biological target: T3, OR1C1 (Homo sapiens, UniProt Q15619); assay type: cell-based; settings: changed C-term. vs wild-type
T3 construct: Improved functional expression of modified OR-genes containing the truncated, optimized C-terminus; expressed in transfected cells; host or cells: HEK293T stably expressing human RTP1S(V227I) and RTP2(L220R)

OR5A2 = biological target: T4, OR5A2 (Homo sapiens, UniProt Q8NGI9); test: CRE-luciferase assay, HEK293T cells expressing OR5A2 (wild-type / modified C-terminus); assay type: cell-based
T4 construct: Improved functional expression of modified OR-genes containing the truncated, optimized C-terminus; expressed in transfected cells; host or cells: HEK293T with stably integrated human RTP1S(V227I) and RTP2(L220R)
T4 sequence (Q8NGI9 with tags, fused parts or gaps): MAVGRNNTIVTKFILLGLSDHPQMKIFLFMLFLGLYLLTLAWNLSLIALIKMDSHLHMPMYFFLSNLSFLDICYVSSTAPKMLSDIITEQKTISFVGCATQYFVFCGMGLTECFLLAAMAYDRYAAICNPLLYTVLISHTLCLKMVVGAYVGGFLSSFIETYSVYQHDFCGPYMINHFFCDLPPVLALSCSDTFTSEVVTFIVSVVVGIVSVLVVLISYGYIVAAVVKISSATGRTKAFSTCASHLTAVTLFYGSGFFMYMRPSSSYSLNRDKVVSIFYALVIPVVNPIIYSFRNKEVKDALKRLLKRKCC

OR5AN1 = biological target: T5, OR5AN1 (Homo sapiens, UniProt Q8NGI8); test: Luciferase assay with chimeric OR5AN1 carrying the C-terminal sequence of OR1N2; assay type: cell-based
T5 construct: Lucy part is a cleavable signal peptide) (N); expressed in transfected cells
Source text: Similarly, the C-terminal sequence of OR5AN1 was replaced with the C-terminal sequence of the ambrettolide receptor OR1N2.

[9] = test system: library of all human class II OR; test: Screening of the library of all class II OR (n=408, C-terminal domain SEQ ID NO: 221) with single odorants, luciferase induction; assay type: cell-based
Method: All human class II OR and all key genetic variants of these OR were synthesized with a sequence coding for an identical modified C-terminal domain […] (SEQ ID NO: 221) in the vector pcDNA3.1(+) to generate a library of all class II OR with an improved C-terminal domain.
Parallel transfection experiments were conducted with all these plasmids (n=408) and cells expressing the different OR were stimulated with one given ligand at a time, tested at the maximal, clearly non-cytotoxic concentration. In total 26 different ligands were tested on the full library of class II receptors.

[10] = biological target: human class II OR identified in the library screening (Homo sapiens, UniProt Q15622)
Method: as §1, §2

[11] = biological target: human class II OR identified in the library screening (Homo sapiens, UniProt O76100)
Method: as §1, §2

[12] = test system: library of human class II OR; test: Screening of the class II OR library with a mixture of odorants of one odor description; assay type: cell-based; settings: OR with C-terminal domain SEQ ID NO: 221
Source text: Single odorants may trigger activation of multiple OR as shown by the case of Ambrofix in example 18, which activates the specific receptors OR7E24 and OR7A17. On the other hand, multiple odorants may be perceived as and described by certain common odor descriptors due to their common activation of a given set of OR. To trigger a specific odor sensation, thus a specific set of OR may need to be activated. This specific OR set can be identified by mixing several odorants with a given odor description. The mixture is then screened on the full library of OR. The identified set of OR can then be further used to screen for that particular odor description. For example, to identify a typical set of OR for the odor description of “fruity esters”, a mixture of the following compounds was made: Pentanoic acid, 2-methyl ethyl ester; Butanoic acid, 3-methyl-, ethyl ester; Acetic acid, phenoxy-, 2-propenyl ester; Hexanoic acid, ethyl ester; Acetic acid, (3-methylbutoxy)-, 2-propenyl ester; Acetic acid, (cyclohexyloxy)-, 2-propenyl ester; Butanoic acid, 2-methyl-, (3Z/E)-3-hexenyl ester; Cyclohexanecarboxylic acid, ethyl ester and Oxiranecarboxylic acid, 3-phenyl, ethyl ester. This mixture was screened against the full library of OR as described in example 18. […]

[13] = OR14J1, modified C-terminus SEQ ID NO: 221 (SEQ ID NO: 738)

T3 sequence (Q15619 with tags, fused parts or gaps): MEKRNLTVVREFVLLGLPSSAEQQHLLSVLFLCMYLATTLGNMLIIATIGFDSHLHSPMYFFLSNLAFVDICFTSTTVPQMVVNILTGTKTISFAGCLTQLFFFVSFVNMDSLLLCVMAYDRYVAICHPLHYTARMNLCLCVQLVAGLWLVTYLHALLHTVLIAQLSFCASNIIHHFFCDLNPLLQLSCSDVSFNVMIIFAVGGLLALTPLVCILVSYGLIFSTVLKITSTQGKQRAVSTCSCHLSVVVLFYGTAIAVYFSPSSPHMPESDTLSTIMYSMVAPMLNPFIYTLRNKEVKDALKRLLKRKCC
Sequence of human class II OR identified in the library screening (Homo sapiens, UniProt O76100) (O76100 whole entry, the tested form may be a part): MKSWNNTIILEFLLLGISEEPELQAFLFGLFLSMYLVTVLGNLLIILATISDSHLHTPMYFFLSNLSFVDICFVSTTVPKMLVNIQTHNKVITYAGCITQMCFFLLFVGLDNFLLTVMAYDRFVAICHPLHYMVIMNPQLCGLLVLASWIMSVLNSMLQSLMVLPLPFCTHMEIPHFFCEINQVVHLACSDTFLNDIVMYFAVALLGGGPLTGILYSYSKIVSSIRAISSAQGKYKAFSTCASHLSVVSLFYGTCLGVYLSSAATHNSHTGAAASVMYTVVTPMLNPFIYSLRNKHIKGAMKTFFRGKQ
T5 sequence (Q8NGI8 with tags, fused parts or gaps limits assumed): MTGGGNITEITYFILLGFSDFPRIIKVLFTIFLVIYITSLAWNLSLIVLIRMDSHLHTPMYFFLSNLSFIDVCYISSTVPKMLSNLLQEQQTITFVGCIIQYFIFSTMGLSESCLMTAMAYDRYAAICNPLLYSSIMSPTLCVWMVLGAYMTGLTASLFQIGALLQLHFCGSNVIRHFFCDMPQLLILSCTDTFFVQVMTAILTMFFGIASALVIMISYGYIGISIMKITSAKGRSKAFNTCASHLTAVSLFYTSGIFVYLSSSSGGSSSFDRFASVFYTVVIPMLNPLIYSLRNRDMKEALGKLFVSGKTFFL
Sequence of human class II OR identified in the library screening (Homo sapiens, UniProt A6NM03) (A6NM03 1-292): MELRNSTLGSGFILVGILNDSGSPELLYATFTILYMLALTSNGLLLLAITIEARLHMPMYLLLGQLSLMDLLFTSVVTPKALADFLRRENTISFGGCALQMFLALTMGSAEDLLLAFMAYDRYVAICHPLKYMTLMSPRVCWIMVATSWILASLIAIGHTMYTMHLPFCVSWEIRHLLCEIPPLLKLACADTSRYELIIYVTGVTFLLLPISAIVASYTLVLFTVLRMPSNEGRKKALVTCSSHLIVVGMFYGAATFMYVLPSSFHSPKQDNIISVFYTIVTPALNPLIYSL
Sequence of human class II OR identified in the library screening (Homo sapiens, UniProt Q15622) (Q15622 whole entry): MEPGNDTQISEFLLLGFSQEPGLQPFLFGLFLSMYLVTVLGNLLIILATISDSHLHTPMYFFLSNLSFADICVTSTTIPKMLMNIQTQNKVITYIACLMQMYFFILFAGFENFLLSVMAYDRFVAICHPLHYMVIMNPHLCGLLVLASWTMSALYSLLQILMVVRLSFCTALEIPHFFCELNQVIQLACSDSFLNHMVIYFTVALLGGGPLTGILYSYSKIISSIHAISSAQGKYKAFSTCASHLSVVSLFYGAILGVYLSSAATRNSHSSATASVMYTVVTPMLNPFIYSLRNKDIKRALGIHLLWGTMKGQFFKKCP
Sequence of human class II OR identified in the library screening (Homo sapiens, UniProt A6NM03, Y28C) (A6NM03 whole entry Y28C): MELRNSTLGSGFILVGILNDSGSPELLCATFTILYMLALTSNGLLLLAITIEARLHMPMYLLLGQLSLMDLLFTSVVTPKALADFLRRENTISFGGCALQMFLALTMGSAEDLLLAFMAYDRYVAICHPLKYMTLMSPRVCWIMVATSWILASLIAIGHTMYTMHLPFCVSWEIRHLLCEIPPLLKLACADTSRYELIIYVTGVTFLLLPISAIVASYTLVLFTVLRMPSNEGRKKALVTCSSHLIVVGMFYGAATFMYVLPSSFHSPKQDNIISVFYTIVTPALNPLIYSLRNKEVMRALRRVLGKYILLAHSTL

In the case of `CC(CO)C1=C2C(C)(C)C3CCC2(C3)C(C)(C)CC1` (stereo not drawn) [Ambermax], the “Detection threshold; concentration for 2-fold induction” value (OR7C1 [1]; changed C-term. SEQ ID NO: 86) is reported as 0.17 µM, the Fold-improvement potency (OR7C1 [1]; changed C-term. vs wild-type) is reported as 2.7 and the “Detection threshold; concentration for 2-fold induction” value (OR7C1 [1]; wild-type) is reported as 2.76 µM. The “ligand specificity in cells expressing OR7A17 and/or OR7C1” value (OR7A17 and OR7C1) was “specific ligand for OR7C1” and the Comments on efficacy (OR7C1 [2]) was 3.5-fold lower.

For `O=C(OCc1ccccc1)c1ccccc1O` [Benzyl salicylate], the Fold improvement efficacy ([3]; OR2AG2 (Y28C), modified C-terminus SEQ ID NO: 221 vs wild-type) was 10.2 fold, the EC50 [4] was 4.5 µM and the “Detection threshold; concentration for 2-fold induction, changed C-term.” value [5] was 1.3 µM. For the same molecule, the “Detection threshold; concentration for 2-fold induction, wild-type” value [6] was “no”.

In the case of `SC1CCCC1` [Cyclopentanethiol, reference compound], the Comments on efficacy (OR2T4 [7]) is reported as “No induction”, the “ligand identification in sulfur odorant screen” value (OR2T4 [7]; OR2T4 with optimized C-terminus SEQ ID NO: 86) is reported as “good ligands” and the Fold-improvement potency (OR2T4 [7]; changed C-term. vs wild-type) is reported as >>22. The Fold-improvement threshold (OR2T4 [7]; changed C-term. vs wild-type) was >>100 and the EC50 (OR2T4 [8]) was over 316 µM.

`C=CC(C)(O)CCC=C(C)C` (stereo not drawn) [Linalool] showed a Fold-improvement potency (OR1C1) of 1.9 and a Fold-improvement threshold (OR1C1) of 2.1.

In the case of `C[C@@H]1CCCCCCCCCCCCC(=O)C1` [Muscone, reference compound], the “concentration at which induction starts” value (OR5A2; OR5A2 with modified C-terminus) is reported as 0.03 µM, the “concentration at which activation occurs” value (OR5A2; modified OR5A2, SEQ ID NO: 86) is reported as 1 µM and the “functional response of chimeric OR5AN1” value (OR5AN1) is reported as “not showing any functional response”. The “Activated OR and OR variants” value ([9]; ligand at maximal non-cytotoxic concentration, full class II library) was “OR5AN1, OR5A2”.

In the case of `C[C@H]1CC[C@@]2(O)C(C)(C)[C@@H]3CC[C@@]2(C)[C@H]1C3` [Patchoulol], the “Detection threshold; concentration for 2-fold induction, changed C-term.” value [3, 13] is reported as 0.45 µM, the Fold improvement efficacy ([3]; OR14J1, modified C-terminus SEQ ID NO: 221 vs wild-type) is reported as 33.4 fold and the EC50 [3, 13] is reported as 2.2 µM. The “activity of the wild-type OR” value ([3]; wild-type sequence, cognate ligand) was “inactive” and the “induction in the library screening” value ([9]; 50 μM Patchoulol) was “strong induction of OR14J1; also recorded: weak induction of OR11A1 and OR7A17”.

With `C=C(C)[C@@H]1CC[C@H](C)C2=C(C1)[C@@H](C)CC2=O` [Rotundone] the Fold improvement efficacy ([3]; OR7A5, modified C-terminus SEQ ID NO: 221 vs wild-type) was 24. fold, the Fold improvement efficacy ([3]; OR7A10, modified C-terminus SEQ ID NO: 221 vs wild-type) was 5.9 fold and the EC50 ([3]; OR7A5, modified C-terminus SEQ ID NO: 221 (SEQ ID NO: 612)) was 5.6 µM. The EC50 ([3]; OR7A10, modified C-terminus SEQ ID NO: 221 (SEQ ID NO: 610)) was 0.16 µM, the “Detection threshold; concentration for 2-fold induction, wild-type” value [10] was “no” and the “Detection threshold; concentration for 2-fold induction, wild-type” value [11] was “no”.

B1: OR2L5: class II OR with C-terminal domain SEQ ID NO: 221 (protein, UniProt Q8NG80 1-312, looked up)
Olfactory receptor 2L5: MENYNQTSTDFILLGLFPPSKIGLFLFILFVLIFLMALIGNLSMILLIFLDTHLHTPMYFLLSQLSLIDLNYISTIVPKMASDFLYGNKSISFIGCGIQSFFFMTFAGAEALLLTSMAYDRYVAICFPLHYPIRMSKRMYVLMITGSWMIGSINSCAHTVYAFRIPYCKSRAINHFFCDVPAMLTLACTDTWVYEYTVFLSSTIFLVFPFTGIACSYGWVLLAVYRMHSAEGRKKAYSTCSTHLTVVTFYYAPFAYTYLCPRSLRSLTEDKVLAVFYTILTPMLNPIIYSLRNKEVMGALTRVIQNIFSVKM
For B1, the “Fold luciferase induction (20 ppm fruity ester mix)” value [12] was 8.9.

B2: OR11G2: class II OR with C-terminal domain SEQ ID NO: 221 (protein, UniProt Q8NGC1 1-345, looked up)
Olfactory receptor 11G2: MHFLSQNDLNINLIPHLCLHRHSVIAGAFTIHRHMKIFNSPSNSSTFTGFILLGFPCPREGQILLFVLFTVVYLLTLMGNGSIICAVHWDQRLHAPMYILLANFSFLEICYVTSTVPSMLANFLSDTKIISFSGCFLQFYFFFSLGSTECFFLAVMAFDRYLAICRPLRYPTIMTRRLCTNLVVNCWVLGFIWFLIPIVNISQMSFCGSRIIDHFLCDPAPLLTLTCKKGPVIELVFSVLSPLPVFMLFLFIVGSYALVVRAVLRVPSAAGRRKAFSTCGSHLAVVSLFYGSVLVMYGSPPSKNEAGKQKTVTLFYSVVTPLLNPVIYSLRNKDMRKALKKFWGT
In the case of B2, the “Fold luciferase induction (20 ppm fruity ester mix)” value [12] is reported as 7.2.
